Laboratory results taken from patent US11413292B2, “Tricyclic heterocycle compounds useful as HIV integrase inhibitors” (Merck Sharp & Dohme Corp., priority 2018, dated 2022).
Read-outs that look alike come from different tables or passages of the source.

Test system: HIV-1 (H9/IIIB strain) virus
Experiment: microbe, parasite or virus in culture
Format: cell-based
Settings: MT4-GFP cells infected with HIV-1 H9/IIIB, inhibition of reproductive ratio
[1] = 0% NHS condition (RPMI 1640), read-out: Viking, IC50 (0% NHS)
[2] = 100% normal human serum (NHS) condition, read-out: Viking, IC50 (100% NHS)

COC1CCN2CN(CC1)n1cc(C(=O)NCc3c(F)ccc(Cl)c3F)c(=O)c(O)c1C2=O (single isomer, unassigned) [Example 19A]
IC50 [1]: 1.8 nM
IC50 [2]: 116 nM

COC1CCN2CN(CC1)n1cc(C(=O)NCc3c(F)ccc(Cl)c3F)c(=O)c(O)c1C2=O (single isomer, unassigned) [Example 19B]
IC50 [1]: 5.3 nM
IC50 [2]: 1880 nM

COC1CCN2CN(CC1)n1cc(C(=O)NCc3c(F)ccc(Cl)c3F)c(=O)c(O)c1C2=O (single isomer, unassigned) [Example 19C]
IC50 [1]: 3.5 nM
IC50 [2]: 245 nM

COC1CCN2CN(CC1)n1cc(C(=O)NCc3c(F)ccc(Cl)c3F)c(=O)c(O)c1C2=O (single isomer, unassigned) [Example 19D]
IC50 [1]: 1.5 nM
IC50 [2]: 300 nM

COC1CCN2CN(CC1)n1cc(C(=O)NCc3ccc(F)cc3F)c(=O)c(O)c1C2=O (single isomer, unassigned) [Example 20A]
IC50 [1]: 3.3 nM
IC50 [2]: 88 nM

COC1CCN2CN(CC1)n1cc(C(=O)NCc3ccc(F)cc3F)c(=O)c(O)c1C2=O (single isomer, unassigned) [Example 20B]
IC50 [1]: 2.8 nM
IC50 [2]: 371 nM

COC1CCN2CN(CC1)n1cc(C(=O)NCc3ccc(F)cc3F)c(=O)c(O)c1C2=O (single isomer, unassigned) [Example 20C]
IC50 [1]: 7.5 nM
IC50 [2]: 606 nM

COC1CCN2CN(CC1)n1cc(C(=O)NCc3ccc(F)cc3F)c(=O)c(O)c1C2=O (single isomer, unassigned) [Example 20D]
IC50 [1]: 2.1 nM
IC50 [2]: 212 nM

COC1CCN2CN(CC1)n1cc(C(=O)NCc3ccc(F)c(Cl)c3F)c(=O)c(O)c1C2=O (single isomer, unassigned) [Example 21A]
IC50 [1]: 2.5 nM
IC50 [2]: 2520 nM

COC1CCN2CN(CC1)n1cc(C(=O)NCc3ccc(F)c(Cl)c3F)c(=O)c(O)c1C2=O (single isomer, unassigned) [Example 21B]
IC50 [1]: 0.9 nM
IC50 [2]: 207 nM

COC1CCN2CN(CC1)n1cc(C(=O)NCc3ccc(F)c(Cl)c3F)c(=O)c(O)c1C2=O (single isomer, unassigned) [Example 21C]
IC50 [1]: 1.7 nM
IC50 [2]: 311 nM

COC1CCN2CN(CC1)n1cc(C(=O)NCc3ccc(F)c(Cl)c3F)c(=O)c(O)c1C2=O (single isomer, unassigned) [Example 21D]
IC50 [1]: 2 nM
IC50 [2]: 472 nM

COC1CCN2CN(CC1)n1cc(C(=O)NCc3c(F)cccc3F)c(=O)c(O)c1C2=O (single isomer, unassigned) [Example 22A]
IC50 [1]: 8.2 nM
IC50 [2]: 333 nM

COC1CCN2CN(CC1)n1cc(C(=O)NCc3c(F)cccc3F)c(=O)c(O)c1C2=O (single isomer, unassigned) [Example 22B]
IC50 [1]: 1.6 nM
IC50 [2]: 161 nM

COC1CCN2CN(CC1)n1cc(C(=O)NCc3c(F)cccc3F)c(=O)c(O)c1C2=O (single isomer, unassigned) [Example 22C]
IC50 [1]: 2 nM
IC50 [2]: 88 nM

COC1CCN2CN(CC1)n1cc(C(=O)NCc3c(F)cccc3F)c(=O)c(O)c1C2=O (single isomer, unassigned) [Example 22D]
IC50 [1]: 1.4 nM
IC50 [2]: 311 nM

COC1CCN2CN(CC1)n1cc(C(=O)NCc3cccc(F)c3F)c(=O)c(O)c1C2=O (single isomer, unassigned) [Example 23A]
IC50 [1]: 5.8 nM
IC50 [2]: 728 nM

COC1CCN2CN(CC1)n1cc(C(=O)NCc3cccc(F)c3F)c(=O)c(O)c1C2=O (single isomer, unassigned) [Example 23B]
IC50 [1]: 2.1 nM
IC50 [2]: 314 nM

COC1CCN2CN(CC1)n1cc(C(=O)NCc3cccc(F)c3F)c(=O)c(O)c1C2=O (single isomer, unassigned) [Example 23C]
IC50 [1]: 4.3 nM
IC50 [2]: 83 nM

COC1CCN2CN(CC1)n1cc(C(=O)NCc3cccc(F)c3F)c(=O)c(O)c1C2=O (single isomer, unassigned) [Example 23D]
IC50 [1]: 1.9 nM
IC50 [2]: 567 nM

O=C(NCc1ccc(F)cc1F)c1cn2c(c(O)c1=O)C(=O)N1CCCCN2C1 [Example 2A]
IC50 [1]: 4.04 nM
IC50 [2]: 4160 nM

O=C(NCc1ccc(F)cc1F)c1cn2c(c(O)c1=O)C(=O)N1CCCCN2C1 [Example 2B]
IC50 [1]: 1.53 nM
IC50 [2]: 234 nM

O=C(NCc1ccc(F)cc1F)c1cn2c(c(O)c1=O)C(=O)N1CCCCCN2C1 [Example 8A]
IC50 [1]: 1.03 nM
IC50 [2]: 1570 nM

O=C(NCc1ccc(F)cc1F)c1cn2c(c(O)c1=O)C(=O)N1CCCCCN2C1 [Example 8B]
IC50 [1]: 0.86 nM
IC50 [2]: 122 nM

O=C(NCc1cccc(Cl)c1F)c1cn2c(c(O)c1=O)C(=O)N1CCCCCN2C1 [Example 9A]
IC50 [1]: 2.57 nM
IC50 [2]: 5620 nM

O=C(NCc1cccc(Cl)c1F)c1cn2c(c(O)c1=O)C(=O)N1CCCCCN2C1 [Example 9B]
IC50 [1]: 1.15 nM
IC50 [2]: 196 nM

O=C(NCc1ccc(F)c(Cl)c1F)c1cn2c(c(O)c1=O)C(=O)N1CCCCCN2C1 [Example 10A]
IC50 [1]: 1.89 nM
IC50 [2]: 8580 nM

O=C(NCc1ccc(F)c(Cl)c1F)c1cn2c(c(O)c1=O)C(=O)N1CCCCCN2C1 [Example 10B]
IC50 [1]: 1.65 nM
IC50 [2]: 225 nM

O=C(NCc1c(F)ccc(Cl)c1F)c1cn2c(c(O)c1=O)C(=O)N1CCCCCN2C1 [Example 11A]
IC50 [1]: 3.45 nM
IC50 [2]: 12500 nM

O=C(NCc1c(F)ccc(Cl)c1F)c1cn2c(c(O)c1=O)C(=O)N1CCCCCN2C1 [Example 11B]
IC50 [1]: 2.09 nM
IC50 [2]: 358 nM

O=C(NCc1c(F)ccc(Cl)c1F)c1cn2c(c(O)c1=O)C(=O)N1CCCCCCN2C1 [Example 12A]
IC50 [1]: 14.3 nM
IC50 [2]: 10700 nM

O=C(NCc1c(F)ccc(Cl)c1F)c1cn2c(c(O)c1=O)C(=O)N1CCCCCCN2C1 [Example 12B]
IC50 [1]: 3.21 nM
IC50 [2]: 428 nM

O=C(NCc1cccc(Cl)c1F)c1cn2c(c(O)c1=O)C(=O)N1CCOCCN2C1 [Example 13A]
IC50 [1]: 2.74 nM
IC50 [2]: 3360 nM

O=C(NCc1cccc(Cl)c1F)c1cn2c(c(O)c1=O)C(=O)N1CCOCCN2C1 [Example 13B]
IC50 [1]: 2.19 nM
IC50 [2]: 146 nM

O=C(NCc1c(F)cc(F)cc1F)c1cn2c(c(O)c1=O)C(=O)N1CCOCCN2C1 [Example 14A]
IC50 [1]: 5.4 nM
IC50 [2]: 4210 nM

O=C(NCc1c(F)cc(F)cc1F)c1cn2c(c(O)c1=O)C(=O)N1CCOCCN2C1 [Example 14B]
IC50 [1]: 1.66 nM
IC50 [2]: 157 nM

O=C(NCc1ccc(F)c(Cl)c1F)c1cn2c(c(O)c1=O)C(=O)N1CCOCCN2C1 [Example 15A]
IC50 [1]: 3.7 nM
IC50 [2]: 10700 nM

O=C(NCc1ccc(F)c(Cl)c1F)c1cn2c(c(O)c1=O)C(=O)N1CCOCCN2C1 [Example 15B]
IC50 [1]: 1.61 nM
IC50 [2]: 224 nM

O=C(NCc1c(F)ccc(Cl)c1F)c1cn2c(c(O)c1=O)C(=O)N1CCOCCN2C1 [Example 16A]
IC50 [1]: 2.7 nM
IC50 [2]: 12300 nM

O=C(NCc1c(F)ccc(Cl)c1F)c1cn2c(c(O)c1=O)C(=O)N1CCOCCN2C1 [Example 16B]
IC50 [1]: 1.2 nM
IC50 [2]: 247 nM

CN1CCN2CN(CC1)n1cc(C(=O)NCc3cccc(Cl)c3F)c(=O)c(O)c1C2=O [Example 24A]
IC50 [1]: 5.1 nM
IC50 [2]: 665 nM

CN1CCN2CN(CC1)n1cc(C(=O)NCc3cccc(Cl)c3F)c(=O)c(O)c1C2=O [Example 24B]
IC50 [1]: 3.5 nM
IC50 [2]: 485 nM

CN1CCN2CN(CC1)n1cc(C(=O)NCc3c(F)ccc(Cl)c3F)c(=O)c(O)c1C2=O [Example 25A]
IC50 [1]: 4.5 nM
IC50 [2]: 1000 nM

CN1CCN2CN(CC1)n1cc(C(=O)NCc3c(F)ccc(Cl)c3F)c(=O)c(O)c1C2=O [Example 25B]
IC50 [1]: 2.1 nM
IC50 [2]: 139 nM

O=C(NCc1ccc(F)cc1F)c1cn2c(c(O)c1=O)C(=O)N1CCC(F)(F)CCN2C1 [Example 26A]
IC50 [1]: 6.6 nM
IC50 [2]: 869 nM

O=C(NCc1ccc(F)cc1F)c1cn2c(c(O)c1=O)C(=O)N1CCC(F)(F)CCN2C1 [Example 26B]
IC50 [1]: 3.2 nM
IC50 [2]: 91 nM
